Data on seven compounds can be found in US20250230193A1, “CYCLIC COMPOUND HAVING SELECTIVE KRAS INHIBITORY EFFECT ON HRAS AND NRAS” (CHUGAI SEIYAKU KABUSHIKI KAISHA, priority 2022, published 2025).

The target in test [1] is GDP-bound NRAS wild-type protein (Homo sapiens, UniProt P01111). Briefly: Binding to NRAS by surface plasmon resonance (SPR), Single Cycle Kinetics. Particulars: SPR.
For test [2], the target named is GDP-bound HRAS wild-type protein (Homo sapiens, UniProt P01112). Kind of test: Binding to HRAS by surface plasmon resonance (SPR), Single Cycle Kinetics. Particulars: SPR. A general note: In SPR one partner is held on a chip, and binding of the other changes the refractive index at the surface.
Setting [3] is: KD ratio, GDP-bound NRAS wild-type vs GDP-bound KRAS wild-type.
The mark [4] stands for this setting: KD ratio, GDP-bound HRAS wild-type vs GDP-bound KRAS wild-type.
The mark [5] stands for this setting: GDP-bound NRAS wild-type vs GDP-bound KRAS wild-type.
The mark [6] stands for this setting: GDP-bound HRAS wild-type vs GDP-bound KRAS wild-type.

Where a SMILES comes first, the peptide text is derived from it. Bridges are numbered along the chain shown (N, C = ends). [ ]: non-standard residue; d: D form. The star is where a group is joined. hPhe(3-Cl-4-CF3) = N[C@@H](CCc1ccc(C(F)(F)F)c(Cl)c1)C(=O)O; NPrPhe(4-CF3) = CCCN[C@@H](Cc1ccc(C(F)(F)F)cc1)C(=O)O; NMeGly(cPent) = CN[C@H](C(=O)O)C1CCCC1; NMeD = CN[C@@H](CC(=O)O)C(=O)O; NMeL = CN[C@@H](CC(C)C)C(=O)O; Morpholide = C1CN(*)CCO1; Ac5c = NC1(C(=O)O)CCCC1; Abu = CC[C@H](N)C(=O)O; Sar = CNCC(=O)O

Chain of GDP-bound HRAS wild-type protein (P01112 whole entry): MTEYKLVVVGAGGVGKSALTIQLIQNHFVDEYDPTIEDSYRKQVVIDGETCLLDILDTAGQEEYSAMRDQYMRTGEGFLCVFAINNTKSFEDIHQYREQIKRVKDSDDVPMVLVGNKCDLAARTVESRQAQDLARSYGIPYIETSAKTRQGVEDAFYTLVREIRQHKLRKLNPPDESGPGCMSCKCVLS
Chain of GDP-bound NRAS wild-type protein (P01111 whole entry): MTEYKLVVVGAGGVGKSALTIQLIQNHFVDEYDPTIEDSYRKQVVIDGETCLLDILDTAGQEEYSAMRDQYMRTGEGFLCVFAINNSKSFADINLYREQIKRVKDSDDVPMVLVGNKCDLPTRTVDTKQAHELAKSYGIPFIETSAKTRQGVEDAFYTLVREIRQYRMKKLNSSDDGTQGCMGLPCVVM

With `CC[C@H](C)[C@@H]1NC(=O)[C@H](CC(C)C)N(C)C(=O)C[C@@H](C(=O)N(C)C)N(C)C(=O)[C@H](C2CCCC2)N(C)C(=O)C2(CCCC2)NC(=O)[C@@H]2CCCN2C(=O)[C@H](CCc2ccc(C(F)(F)F)c(Cl)c2)NC(=O)CN(C)C(=O)[C@H](Cc2ccc(C(F)(F)F)cc2)N2CC=CCOC[C@H](C2=O)N(C)C(=O)CN(C)C1=O` [PP0628], the “NRAS/KRAS (ratio of KD value with respect to GDP-bound NRAS wild-type protein to KD value with respect to KRAS)” value in test [1] (KD ratio NRAS/KRAS) was “C (A compound having a KD ratio of 0.1 or more and less than 3 is denoted as C)”. Besides, the “HRAS/KRAS (ratio of KD value with respect to GDP-bound HRAS wild-type protein to KD value with respect to KRAS)” value in test [2] (KD ratio HRAS/KRAS) is “C (A compound having a KD ratio of 0.1 or more and less than 3 is denoted as C)”.
Take `CCCN1C(=O)CN(C)C(=O)CN(C)C(=O)[C@H](CC)NC(=O)[C@H](CC(C)C)N(C)C(=O)C[C@@H](C(=O)N2CCOCC2)N(C)C(=O)[C@H](C2CCCC2)N(C)C(=O)C2(CCCC2)NC(=O)[C@@H]2CCCN2C(=O)[C@H](CCc2ccc(C(F)(F)F)c(Cl)c2)NC(=O)CN(C)C(=O)[C@@H]1Cc1ccc(C(F)(F)F)cc1` [PP0248] ([NMeL][Abu][Sar][Sar][NPrPhe(4-CF3)][Sar][hPhe(3-Cl-4-CF3)]P[Ac5c][NMeGly(cPent)][NMeD]-Morpholide; lactam N-11): the “NRAS/KRAS (ratio of KD for GDP-bound NRAS wild-type to KD for KRAS)” value in test [1] (KD ratio NRAS/KRAS) was “B (a compound having 3 or more and less than 10 is denoted as B)”. In test [2] (KD ratio HRAS/KRAS), the “HRAS/KRAS (ratio of KD for GDP-bound HRAS wild-type to KD for KRAS)” value is “B (a compound having 3 or more and less than 10 is denoted as B)”.
As for `CCO[C@@H]1C[C@H]2C(=O)NC3(CCC3)C(=O)N(C)[C@@H](C3CCCC3)C(=O)N(C)[C@H](C(=O)N(C)C)CC(=O)N(C)[C@@H](CC(C)C)C(=O)N[C@@H]([C@@H](C)CC)C(=O)N3CC[C@H]3C(=O)N(C)[C@H]3CC(C)=C(C)CN(C3=O)[C@@H](Cc3ccc(C(F)(F)F)cc3)C(=O)N(C)CC(=O)N[C@@H](CCc3cc(F)c(C(F)(F)F)c(F)c3)C(=O)N2C1` [PP1047], in test [1] (setting [3]), the “NRAS/KRAS (ratio of KD value with respect to NRAS to KD value with respect to KRAS)” value was “C (A compound having a KD ratio of 0.1 or more and less than 3 is denoted as C)”. In test [2] (setting [4]), the “HRAS/KRAS (ratio of KD value with respect to HRAS to KD value with respect to KRAS)” value is “C (A compound having a KD ratio of 0.1 or more and less than 3 is denoted as C)”.
With `CCO[C@@H]1C[C@H]2C(=O)NC3(CC(F)(F)C3)C(=O)N(C)[C@@H](C(CC)CC)C(=O)N(C)[C@H](CC)CC(=O)N(C)[C@@H](CC3CC3)C(=O)N[C@@H]([C@@H](C)CC)C(=O)N(C)CC(=O)N(C)[C@H]3C/C=C\CCN(C3=O)[C@@H](Cc3ccc(C(F)(F)F)cc3)C(=O)N(C)CC(=O)N[C@@H](CCc3cc(F)c(C(F)(F)F)c(F)c3)C(=O)N2C1` [PP1632], the “NRAS/KRAS (ratio of KD value for NRAS to KD value for KRAS)” value in test [1] (setting [3]) is “A (a compound having 10 or more and less than 20 is denoted as A)”. For the same compound, the “HRAS/KRAS (ratio of KD value for HRAS to KD value for KRAS)” value in test [2] (setting [4]) is “A (a compound having 10 or more and less than 20 is denoted as A)”.
Regarding `CC[C@H](C)[C@@H]1NC(=O)[C@@H]2CCCc3ccc(cc3)C[C@@H](C(=O)N(C)CC(=O)N[C@@H](CCc3ccc(C(F)(F)F)c(OC)c3)C(=O)N3C[C@H](OC4CCC4)C[C@H]3C(=O)NC3(CC(C)(C)C3)C(=O)N(C)[C@@H](C3CCCC3)C(=O)N(C)[C@H](C(=O)N(C)CC)CC(=O)N2C)N2CC/C=C\C[C@@H](C2=O)N(C)C(=O)CN(C)C1=O` [PP3085], in test [1] (KD ratio NRAS/KRAS, GDP-bound wild-type proteins), the “NRAS/KRAS (ratio of KD value with respect to GDP-bound NRAS wild-type protein to KD value with respect to KRAS)” value is “A (a compound having 10 or more and less than 20 is denoted as A)”. Besides, in test [2] (KD ratio HRAS/KRAS, GDP-bound wild-type proteins), the “HRAS/KRAS (ratio of KD value with respect to GDP-bound HRAS wild-type protein to KD value with respect to KRAS)” value is “B (a compound having 3 or more and less than 10 is denoted as B)”.
For the compound `CC[C@H](C)[C@@H]1NC(=O)[C@H](COC)N(C)C(=O)C[C@@H](C(=O)N(C)CC)N(C)C(=O)[C@H](C2CCCC2)N(C)C(=O)C2(CC(C)(C)C2)NC(=O)[C@@H]2C[C@H](C)CN2C(=O)[C@H](CCc2ccc(C(F)(F)F)c(Cl)c2)NC(=O)CN(C)C(=O)[C@H](Cc2ccc(C)cc2)N2CC/C=C\C[C@@H](C2=O)N(C)C(=O)CN(C)C1=O` [PP2506], the “NRAS/KRAS (ratio of KD value with respect to NRAS to KD value with respect to KRAS)” value in test [1] (setting [5]) is “A (a compound having 10 or more and less than 20 is denoted as A)”. For the same compound, the “HRAS/KRAS (ratio of KD value with respect to HRAS to KD value with respect to KRAS)” value in test [2] (setting [6]) was “A (a compound having 10 or more and less than 20 is denoted as A)”.
In the case of `CCO[C@@H]1C[C@H]2C(=O)NC3(CC(C)(C)C3)C(=O)N(C)[C@@H](C(CC)CC)C(=O)N(C)[C@H](C(=O)N(C)C)CC(=O)N(C)[C@@H](CC3CC3)C(=O)N[C@@H]([C@@H](C)CC)C(=O)N(C)CC(=O)N(C)[C@H]3C/C=C\CCN(C3=O)[C@@H](Cc3ccc(C)cc3)C(=O)N(C)CC(=O)N[C@@H](CCc3ccc(Cl)c(Cl)c3)C(=O)N2C1` [PP2182], the “NRAS/KRAS (ratio of KD value with respect to NRAS to KD value with respect to KRAS)” value in test [1] (setting [5]) is reported as “AA (a compound having 20 or more is denoted as AA)”. The “HRAS/KRAS (ratio of KD value with respect to HRAS to KD value with respect to KRAS)” value in test [2] (setting [6]) is “A (a compound having 10 or more and less than 20 is denoted as A)”.
